Patent publication US20220249599A1, “TREATMENT OF IMPLANTS WITH ENGINEERED ANTIMICROBIAL AMPHIPHILIC PEPTIDES” (priority 2018, published 2022)
Ends that are not written are not given here.

Columns and labels:
S. aureus = assay: Periprosthetic joint infection mouse model, implant biofilm CFU burden; assay type: in vivo; details: intraperitoneal delivery, versus untreated control mice
Description: Periprosthetic joint infection was modeled in a mouse by placing an intra-articular K-wire through the medullary canal of the proximal femur followed by intra-articular inoculation with S. aureus. Animals were treated systemically with an intraperitoneal delivery of cefazolin, rifampin, or the exemplary peptide of SEQ ID NO:1. Intraperitoneal delivery was chosen due to technical difficulties associated with intravenous delivery. Implant sonication and proximal femur homogenate were used to quantify viable bacteria.

[1] = tested on: P. aeruginosa strains (PAO1 and 2 clinical isolates); assay type: cell-based; details: three P. aeruginosa strains, 0.5×MIC exposure
Excerpt: Each antibiotic was compared for their propensity to select for bacterial resistance phenotypes in vitro.

[2] = tested on: Acinetobacter baumannii ATCC BAA-1797 (MDR); assay: microbe, parasite or virus in culture; assay type: cell-based; details: ATCC BAA-1797
Description: (§1) Each peptide was formulated in PBS buffer prior to testing. Peptides of SEQ ID NO:5 and SEQ ID NO:8 were brought up in 100% DMSO with 0.002% polysorbate-80 at 1.28 mg/mL (40× the highest final test concentration of 32 mcg/mL). Final test concentration of DMSO was 2.5% in the assay at the first dilution for those two compounds.
(§2) Mueller Hinton II broth (MHB II; BD; Lot Nos. 6258541 and 7143896) was used for MIC testing of aerobic organisms. 0.002% polysorbate 80 (P80) was added to the test medium.
(§3) MIC values were determined using a broth microdilution procedure described by CLSI (1, 3). Automated liquid handlers (Multidrop 384, Labsystems, Helsinki, Finland; Biomek 2000 and Biomek FX, Beckman Coulter, Fullerton Calif.) were used to conduct serial dilutions and liquid transfers.
(§4) To prepare the drug mother plates, which would provide the serial peptide dilutions for the replicate daughter plates, the wells of columns 2-12 of standard 96-well microdilution plates (Costar 3795) were filled with 150 µl of the designated diluent for each row of peptide.
(§5) The test articles and comparator compounds ([…] at 40× the highest concentration to be tested) were dispensed into the appropriate wells in column 1. The Biomek 2000 was then used to make 2-fold serial dilutions in the mother plates from column 1 through column 11. The wells of Column 12 contained no drug and served as the organism growth control wells for the assay.
(§6) The daughter plates were loaded with 185 μL per well of MHB II using the Multidrop 384. The daughter plates were completed on the Biomek FX instrument which transferred 5 uL of peptide solution from each well of a mother plate to the corresponding well of each daughter plate in a single step. A standardized inoculum of each test organism was prepared per CLSI methods. The inoculum for each organism was dispensed into sterile reservoirs divided by length (Beckman Coulter), and the Biomek 2000 was used to inoculate the plates. Daughter plates were placed on the Biomek 2000 work surface in reverse orientation so that inoculation took place from low to high drug concentration.
(§7) Plates were stacked 3-4 high, covered with a lid on the top plate, placed in plastic bags, and incubated at 35° C. for 16 to 20 hrs. Following incubation, the microplates were removed from the incubator and viewed from the bottom using a plate viewer. […] The MIC was read and recorded as the lowest concentration of peptide that inhibited visible growth of the organism.

[3] = tested on: Klebsiella pneumoniae ATCC BAA-1705 (KPC); assay type: cell-based; details: ATCC BAA-1705
Description: as §1, §2, §3, §4, §5, §6, §7

[4] = tested on: Escherichia coli ATCC 25922 (QC); assay type: cell-based; details: ATCC 25922
Description: as §1, §2, §3, §4, §5, §6, §7

[5] = tested on: Staphylococcus aureus ATCC 29213 (MSSA; QC); assay type: cell-based; details: ATCC 29213
Description: as §1, §2, §3, §4, §5, §6, §7

[6] = tested on: Staphylococcus aureus ATCC 43300 (MRSA); assay type: cell-based; details: ATCC 43300
Description: as §1, §2, §3, §4, §5, §6, §7

[7] = tested on: Escherichia coli ATCC BAA-2471 (NDM-1); assay type: cell-based; details: ATCC BAA-2471
Description: as §1, §2, §3, §4, §5, §6, §7

[8] = tested on: Enterococcus faecium ATCC 51559 (VRE); assay type: cell-based; details: ATCC 51559
Description: as §1, §2, §3, §4, §5, §6, §7

[9] = tested on: Pseudomonas aeruginosa ATCC BAA-2109 (MDR); assay type: cell-based; details: ATCC BAA-2109
Description: as §1, §2, §3, §4, §5, §6, §7

[10] = tested on: Pseudomonas aeruginosa ATCC 27853 (non-MDR; QC); assay type: cell-based; details: ATCC 27853
Description: as §1, §2, §3, §4, §5, §6, §7

[11] = tested on: Streptococcus pneumoniae ATCC 49619 (QC); assay type: cell-based; details: ATCC 49619
Description: as §1, §2, §3, §4, §5, §6, §7

[12] = tested on: Streptococcus pyogenes ATCC 49399; assay type: cell-based; details: ATCC 49399
Description: as §1, §2, §3, §4, §5, §6, §7

[13] = tested on: Enterococcus faecalis ATCC 700802 (V583 VRE); assay type: cell-based; details: ATCC 700802
Description: as §1, §2, §3, §4, §5, §6, §7

[14] = tested on: Acinetobacter baumannii ATCC 19606 (non-MDR); assay type: cell-based; details: ATCC 19606
Description: as §1, §2, §3, §4, §5, §6, §7

[15] = tested on: Escherichia coli ATCC 35218 (ESBL); assay type: cell-based; details: ATCC 35218
Description: as §1, §2, §3, §4, §5, §6, §7

[16] = tested on: Enterococcus faecalis ATCC 29212 (VSE; QC); assay type: cell-based; details: ATCC 29212
Description: as §1, §2, §3, §4, §5, §6, §7

[17] = tested on: Staphylococcus aureus NRS382 (USA100; HA-MRSA); assay type: cell-based; details: USA100
Description: as §1, §2, §3, §4, §5, §6, §7

| Molecule | Reduction of implant biofilm CFU burden (sonicate culture) (S. aureus) | Time to development of resistance (fold MIC>10) [1] | MIC [2] | MIC [3] | MIC [4] | MIC [5] | MIC [6] | MIC [7] | MIC [8] | MIC [9] | MIC [10] | MIC [11] | MIC [12] | MIC [13] | MIC [14] | MIC [15] | MIC [16] | MIC [17] |
| --- | --- | --- | --- | --- | --- | --- | --- | --- | --- | --- | --- | --- | --- | --- | --- | --- | --- | --- |
| CO[C@H]1/C=C/O[C@@]2(C)Oc3c(C)c(O)c4c(O)c(c(/C=N/N5CCN(C)CC5)c(O)c4c3C2=O)NC(=O)/C(C)=C\C=C\[C@H](C)[C@H](O)[C@@H](C)[C@@H](O)[C@@H](C)[C@H](OC(C)=O)[C@@H]1C [Rifampin] | comparable reduction in biofilms sonicate as compared to SEQ ID NO:1 | ≤ 3 days |  |  |  |  |  |  |  |  |  |  |  |  |  |  |  |  |
| IRRRRRRIRRRRRR [SEQ ID NO: 2] |  |  | >32 mg/L | >32 mg/L | 16 mg/L | 16 mg/L | 16 mg/L | 32 mg/L | 16 mg/L | 8 mg/L | >32 mg/L | >32 mg/L | 32 mg/L | >32 mg/L | 32 mg/L | 16 mg/L | >32 mg/L | 8 mg/L |
| LL-37 [LL37] |  | 9 days |  |  |  |  |  |  |  |  |  |  |  |  |  |  |  |  |
| VVRVVRRVVRVVRR [SEQ ID NO: 7] |  |  | >32 mg/L | >32 mg/L | >32 mg/L | >32 mg/L | >32 mg/L | 16 mg/L | 16 mg/L | >32 mg/L | >32 mg/L | >32 mg/L | 16 mg/L | >32 mg/L | >32 mg/L | 32 mg/L | >32 mg/L | >32 mg/L |
| VVRVVRVVVRVVRVVVRVVRV [SEQ ID NO: 8] |  |  | >32 mg/L | >32 mg/L | >32 mg/L | >32 mg/L | 32 mg/L | >32 mg/L | 0.25 mg/L | 16 mg/L | >32 mg/L | >32 mg/L | 16 mg/L | 4 mg/L | 32 mg/L | >32 mg/L | 4 mg/L | >32 mg/L |
| VWRWVRRVWRWVRR [SEQ ID NO: 6] |  |  | 0.5 mg/L | 4 mg/L | 2 mg/L | 0.5 mg/L | 0.5 mg/L | 1 mg/L | 0.5 mg/L | 8 mg/L | 16 mg/L | 8 mg/L | 4 mg/L | 4 mg/L | 0.5 mg/L | 1 mg/L | 2 mg/L | 0.5 mg/L |
| VWRWVRRVWRWVRRVWRWVRR [SEQ ID NO: 5] |  |  | 32 mg/L | >32 mg/L | 16 mg/L | 16 mg/L | 8 mg/L | 32 mg/L | 8 mg/L | 16 mg/L | >32 mg/L | 32 mg/L | 32 mg/L | 16 mg/L | 16 mg/L | 16 mg/L | 16 mg/L | 8 mg/L |
